Measurements taken from US20240307220A1, “Combination Therapy to Treat Temperature Sensitive Mutant Tumors” (H. LEE MOFFITT CANCER CENTER AND RESEARCH INSTITUTE INC., priority 2021, published 2024).

How the values were obtained:
GA10-p53KO tumors = assay: GA10-p53KO subcutaneous tumor xenografts in nude mice treated with CPT and hypothermia; assay type: in vivo; conditions: 32 hr×5 format
Method: FIGS. 7A to 7E show hypothermia cooperates with chemotherapy to induce regression of tumors expressing ts p53. […] CPT (1.5 mg/kg) was given at the beginning of each hypothermia cycle. Average size of tumors was plotted over time (mean±SD). FIG. 7B contains pictures of a GA10 partial response tumor before and after treatment. FIG. 7C is a waterfall plot showing combined results of 3 experiments. Tumors with durable remission are marked as “cured”. FIG. 7D contains individual growth curves of representative GA10 tumors from FIG. 7A that achieved durable remission after treatment. FIG. 7E contains individual growth curves of GA10 tumors from FIG. 7A that relapsed and received re-treatment.
Animal experiment. Animal experiments were reviewed and approved by the University of South Florida IACUC. Athymic female nude mice (6-week old, Athymic Nude-Foxn1nu, Envigo) were injected subcutaneously with 0.1 ml 1:1 slurry of Matrigel (VWR 47743-715) and 1×10^7 cells in PBS at each site. The inoculated mice were housed in a cabinet set to 28° C. (ARIA BIO-C36 ventilated cabinet, TECNIPLAST) to ensure that tumors develop at ˜37° C. […] The mice were kept in the 28° C. cabinet and monitored using infrared thermal imaging camera (FLIR ONE Pro, FLIR® Systems, Inc.) to verify that body temperature was maintained at ˜32° C. […]

[1] = tested on: P53 binding to PUMA promoter; assay: ChIP of p53 binding to PUMA promoter in H1299 stably expressing p53 mutants; assay type: cell-based, human; conditions: 0.5 μM CPT at 32° C. for 20 hrs
Method: (§1) FIGS. 1B and 1C show representative p53 ts mutants stably expressed in H1299 cells tested for induction of target gene expression after 20 hrs at 32° C. CPT (0.5 μM for 20 hrs) was added when cells were shifted to 32° C. […] P53 binding to PUMA promoter was determined by ChIP. The results are average of 3 experiments (mean±SD).
Chromatin immunoprecipitation (ChIP). ChIP assay was performed using standard procedure. Crosslinked p53-DNA complexes were immunoprecipitated with DO-1 antibody. Samples were subjected to SYBR Green real-time PCR analysis using forward and reverse primers for the p53 binding sites in the p21 promoter ([…] (SEQ ID NO:7) and […] (SEQ ID NO:8)), and PUMA promoter ([…] (SEQ ID NO:9) and […] (SEQ ID NO:10)).

[2] = tested on: H1299 cells stably expressing p53 ts mutants; assay: Western blot of p53 target gene induction in H1299 stably expressing ts p53 mutants, with CPT; assay type: cell-based, human
Method: as §1
FIGS. 10A to 10F show induction of endogenous targets by ts p53 mutants. P53 ts mutants were stably expressed in H1299 cells using lentivirus vector. Cells were tested for induction of target gene expression after 20 hrs at 32° C. by Western blot. CPT (0.5 μM for 20 hrs) was added when cells were shifted to 32° C. A138V was used as a benchmark to facilitate comparison between gels.
Western blot. Cells were lysed in lysis buffer (50 mM Tris-HCl pH 8.0, 5 mM EDTA, 150 mM NaCl, 0.5% Nonidet P-40, 1×protease inhibitor cocktail) and centrifuged for 10 minutes at 14,000×g, and the insoluble debris was discarded. Cell lysate (10-50 µg of protein) was fractionated by SDS-PAGE and transferred to Immobilion P filters (Millipore). The filter was blocked for 1 hr with phosphate buffered saline (PBS) containing 5% non-fat dry milk and 0.1% Tween 20, incubated with primary and secondary antibodies, and the filter was developed using SuperSignal reagent (Thermo Scientific). MDM2 was detected using monoclonal antibody 3G9 produced in house. Other markers were detected using commercial antibodies: Actin (Sigma A5441), p53-DO1 (BD Pharmingen #554293), p21 (BD Pharmingen #556430), PUMA (CellSignaling #12450), PARP (BD Pharmingen #556362), p53 pSer15 (CellSignaling #9284), p53 acetyl-Lys382 (CellSignaling #2525).
Validation of ts p53 mutants from cancer. We selected 17 most frequently observed ts mutants for validation in p53-null H1299 cells. These ts mutants together represent 9.6% (2,358/24,679) of tumors with p53 missense mutations (Table 3), or 64% (2,358/3,658) of tumors with ts p53 mutations. The ability of these mutants to activate the p21 and PUMA promoters at 32° C. were confirmed in reporter assays after transient expression (FIG. 2A, FIG. 8A-8C). […]

## CC[C@@]1(O)C(=O)OCc2c1cc1n(c2=O)Cc2cc3ccccc3nc2-1 [CPT, Camptothecin]
GA10-p53KO tumors; CPT 1.5 mg/kg and 32° C. hypothermia
  GA10-p53KO complete response or durable remission: did not achieve complete response or durable remission
GA10-p53KO tumors; p53-independent effects of CPT and hypothermia
  GA10-p53KO tumor size change: modest shrinkage
[1]
  PUMA promoter binding by the ts mutants (ChIP): further stimulated the binding
[2]; CPT 0.5 μM for 20 hrs at 32° C., Western blot
  ts p53 Ser15 phosphorylation and K382 acetylation: stimulated
[2]; H1299 without p53, CPT 0.5 μM for 20 hrs
  PUMA expression in the absence of p53: modestly stimulated PUMA expression
[2]; stably transfected H1299 with ts mutants, CPT 0.5 μM for 20 hrs at 32° C., Western blot
  induction of endogenous PUMA: could be stimulated
